Tests used:
[1] = tested on: BM3249, S. aureus clinical isolate; experiment: MIC by serial twofold dilutions in MHA, strain BM3249; type: cell-based
Protocol: (§1) Staphylococci were grown in Brain Heart Infusion (Difco Laboratories, Detroit, Mich.), and E. coli cells were grown in Luria broth (10 g.1^−1 of tryptone, 5 g.^−1 of yeast extract, and 10 g.1^−1 of NaCl) Solid media contained 15 g.1^−1 of agar. Bacteria were incubated at 37° C. and for liquid cultures with agitation. Susceptibility to antibiotics was tested on Mueller-Hinton agar (MHA) (Diagnostics Pasteur, Marne-la-Coquette, France).
(§2) Susceptibility to antibiotics was determined by a disk diffusion assay (12) with commercially available antibiotic disks (Diagnostics Pasteur) and disks prepared in our laboratory as described previously (18). MICs of pristinamycin IIA and pristinamycin (Rhône-Poulenc Rorer) were determined with serial twofold dilutions of antibiotics in MHA, as described previously (2, 17).

[2] = tested on: BM3250, S. aureus clinical isolate; experiment: MIC by serial twofold dilutions in MHA, strain BM3250; type: cell-based
Protocol: as §1, §2

[3] = tested on: BM3252, S. aureus clinical isolate; experiment: MIC by serial twofold dilutions in MHA, strain BM3252; type: cell-based
Protocol: as §1, §2

[4] = tested on: BM3318, S. aureus clinical isolate; experiment: MIC by serial twofold dilutions in MHA, strain BM3318; type: cell-based
Protocol: as §1, §2

[5] = tested on: BM3327, S. aureus clinical isolate; experiment: MIC by serial twofold dilutions in MHA, strain BM3327; type: cell-based
Protocol: as §1, §2

[6] = tested on: BM21926, S. aureus transformant: RN4220 (pIP 1810); experiment: MIC by serial twofold dilutions in MHA, transformant carrying vgaC; type: cell-based; conditions: S. aureus RN4220 (pIP1810, carries vgaC) = BM21926
Protocol: as §1, §2
(§3) A DNA fragment of 1827-bp including vgaC was amplified with primers C and D (FIG. 1) from the cellular DNA of BM3327. This amplicon was cleaved with BamHl and KpnI and inserted between the BamHl and KpnI sites of the shuttle vector, pRB374 (11), downstream from the vegII promoter carried by this vector. The resulting plasmid, pIP1810, was introduced by electroporation into the S. aureus recipient RN4220. It conferred resistance to pristinamycin IIA (MICs: 32 mg.1^−1 for RN4220 [pIP18101, and 2 mg.1^−1 for RN4220 [pRB374]).

RN4220 [pRB374] = experiment: MIC by serial twofold dilutions in MHA, transformant with the empty vector; type: cell-based; conditions: S. aureus RN4220 [pRB374], vector without vgaC
Protocol: as §1, §2, §3

[7] = tested on: four S. aureus isolates (BM3249, BM3250, BM3252 and BM3327); experiment: MICs of the four isolates used in filter mating; type: cell-based; conditions: range over BM3249, BM3250, BM3252 and BM3327
Protocol: as §1, §2
Each of the four S. aureus isolates (BM3249, BM3250, BM3252 and BM3327: Table 1) resistant to PIIA (MICs : 64-128 mg. 1^−1) and related antibiotics was crossed on a membrane filter with the S. aureus recipient strain, ISP1127 (26). No transcipients were obtained by selection on pristinamycin IIA (frequency<10^−10 transcipients/donor).

resistant staphylococci = conditions: staphylococci resistant to A compounds; cited from earlier work

Question: For `CC1=C\[C@@H](O)CC(=O)Cc2nc(co2)C(=O)N2CCC=C2C(=O)O[C@H](C(C)C)[C@H](C)/C=C/C(=O)NC\C=C\1` [pristinamycin IIA], which MIC [1] is on record?
Answer: The MIC was 64 mg.1^−1.

Question: And the MIC [2]?
Answer: The MIC was 64 mg.1^−1.

Question: What about the MIC [3] of the same compound?
Answer: Its MIC is 64 mg.1^−1.

Question: What about the MIC [4] of the same compound?
Answer: Its MIC is 128 mg.1^−1.

Question: What about the MIC [5] of the same compound?
Answer: Its MIC is 128 mg.1^−1.

Question: And the MIC [6]?
Answer: The MIC was 32 mg.1^−1.

Question: And the MIC ([6]; listed as SgA)?
Answer: Its MIC is “SgA (32 mg.1^−1) Km Nm Tm”.

Question: What about the MIC (RN4220 [pRB374]) of the same compound?
Answer: The MIC was 2 mg.1^−1.

Question: What about the MICs [7] of the same compound?
Answer: Its MICs is 64-128 mg. 1^−1.

Question: What about the MICs (resistant staphylococci) of the same compound?
Answer: Its MICs is 8 mg.1^1.
